pIC50, pKd: −log10 of the molar value. Where two headings read alike, the source gives them in different places.

One test has as its target MTOR_h (Homo sapiens (Human), UniProt P42345). The test is described as follows: KINOMEscan enzyme binding assay, MTOR. The note with it: DiscoveRx. The protocol:
(§1) Enzyme Binding Assays (KINOMEscan®) Kinase enzyme binding affinities of compounds disclosed herein were determined using the KINOMEscan technology performed by DiscoveRx Corporation, San Diego, Calif., USA (www.kinomescan.com).

Test [1] relates to Akt phosphorylated at Ser473 in PC-3 cells. Kind of test: Cellular assay: phosphorylation of Akt (Ser473) in PC-3 cells, MSD ELISA. Format: cell-based. To be noted: 60 min incubation with compound, read-out: IC50 pAkt_S473. The protocol:
(§2) Cellular activity of PI3Kβ inhibitors was determined by quantifying the phosphorylation of Akt in PC-3 cells. Akt phosphorylated at Ser473 and Thr308 were measured using an enzyme-linked immunosorbent assay (ELISA; Meso Scale Discovery (MSD), Gaithersburg, Md.) and specific primary antibodies from MSD.
(§3) On day 1, PC3 cells (ATCC # […]) were seeded into PerkinElmer MW96 plates at 25.000 cells per well, in 75 μl complete culture medium (DMEM (Dulbecco's Modified Eagle's Medium) high glucose, AQmedia™, D0819, Sigma-Aldrich) containing 10% heat inactivated FCS (Fetal Bovine Serum) and incubated at 37° C., 5% CO2 during 24 hours. On day 2, compound or DMSO (dimethyl sulfoxide) (0.3%) was added and cells were further incubated for 60 min at 37° C., 5% CO2 in a total volume of 100 μl of medium.
(§4) The phosphoprotein assay was executed according to vendor instructions in the Phospho-Akt (Ser473) Assay Whole Cell Lysate Kit (MSD # K15100D-3) and the Phospho-Akt (Thr308) Assay Whole Cell Lysate Kit (MSD # K151DYD-3) using the lysis, blocking and wash buffer provided.
(§5) Briefly, at the end of the cell treatment period, media were removed by aspiration and adherent cells were lysed in 50 μl ice-cold lysis buffer. MSD plates are supplied pre-coated with capture antibodies for Phospho-Akt (Ser473 and Thr308). After blocking, lysates from tissue culture plates were added and plates were washed. Then, a solution containing the detection antibody (anti-total Akt conjugated with an electrochemiluminescent compound-MSD Sulfo-tag label) was added. The signals were detected using an MSD SECTOR Imager 6000 and are proportional to the phospho-Akt titres.
(§6) Data were processed. The percentage of inhibition was plotted against the log concentration of test compounds, and the sigmoidal log concentration-effect curve of best fit was calculated by nonlinear regression analysis. From these concentration-response curves, the IC50 values were calculated. Five concentrations were used for curve fitting.
(In general: ELISA stands for enzyme-linked immunosorbent assay.)

The next test deals with PIK3Cβ_h (Homo sapiens (Human), UniProt P42338). Kind of test: KINOMEscan enzyme binding assay, PIK3Cβ. To be noted: DiscoveRx. The protocol:
(§7) Enzyme Binding Assays (KINOMEscan®) Kinase enzyme binding affinities of compounds disclosed herein were determined using the KINOMEscan technology performed by DiscoveRx Corporation, San Diego, Calif., USA (www.kinomescan.com). Table A reports the obtained Kd values (nM), with the Kd being the inhibitor binding constant: […]

The target in another test is PIK3Cα_h (Homo sapiens (Human), UniProt P42336). Kind of test: KINOMEscan enzyme binding assay, PIK3Cα. The note with it: DiscoveRx. The protocol: as §1
A further test has as its target PIK3Cδ_h (Homo sapiens (Human), UniProt O00329). The test is described as follows: KINOMEscan enzyme binding assay, PIK3Cδ. To be noted: DiscoveRx. The protocol:
as §7

The target of the next test is PIK3Cγ_h (Homo sapiens (Human), UniProt P48736). Kind of test: KINOMEscan enzyme binding assay, PIK3Cγ. To be noted: DiscoveRx. The protocol:
as §1

Test [2] deals with Akt phosphorylated at Thr308 in PC-3 cells. Kind of test: Cellular assay: phosphorylation of Akt (Thr308) in PC-3 cells, MSD ELISA. It is filed as cell-based. To be noted: 60 min incubation with compound, read-out: IC50 pAkt_Thr308. The protocol: as §2, §3, §4, §5, §6

Sequence of PIK3Cα_h (P42336 whole entry): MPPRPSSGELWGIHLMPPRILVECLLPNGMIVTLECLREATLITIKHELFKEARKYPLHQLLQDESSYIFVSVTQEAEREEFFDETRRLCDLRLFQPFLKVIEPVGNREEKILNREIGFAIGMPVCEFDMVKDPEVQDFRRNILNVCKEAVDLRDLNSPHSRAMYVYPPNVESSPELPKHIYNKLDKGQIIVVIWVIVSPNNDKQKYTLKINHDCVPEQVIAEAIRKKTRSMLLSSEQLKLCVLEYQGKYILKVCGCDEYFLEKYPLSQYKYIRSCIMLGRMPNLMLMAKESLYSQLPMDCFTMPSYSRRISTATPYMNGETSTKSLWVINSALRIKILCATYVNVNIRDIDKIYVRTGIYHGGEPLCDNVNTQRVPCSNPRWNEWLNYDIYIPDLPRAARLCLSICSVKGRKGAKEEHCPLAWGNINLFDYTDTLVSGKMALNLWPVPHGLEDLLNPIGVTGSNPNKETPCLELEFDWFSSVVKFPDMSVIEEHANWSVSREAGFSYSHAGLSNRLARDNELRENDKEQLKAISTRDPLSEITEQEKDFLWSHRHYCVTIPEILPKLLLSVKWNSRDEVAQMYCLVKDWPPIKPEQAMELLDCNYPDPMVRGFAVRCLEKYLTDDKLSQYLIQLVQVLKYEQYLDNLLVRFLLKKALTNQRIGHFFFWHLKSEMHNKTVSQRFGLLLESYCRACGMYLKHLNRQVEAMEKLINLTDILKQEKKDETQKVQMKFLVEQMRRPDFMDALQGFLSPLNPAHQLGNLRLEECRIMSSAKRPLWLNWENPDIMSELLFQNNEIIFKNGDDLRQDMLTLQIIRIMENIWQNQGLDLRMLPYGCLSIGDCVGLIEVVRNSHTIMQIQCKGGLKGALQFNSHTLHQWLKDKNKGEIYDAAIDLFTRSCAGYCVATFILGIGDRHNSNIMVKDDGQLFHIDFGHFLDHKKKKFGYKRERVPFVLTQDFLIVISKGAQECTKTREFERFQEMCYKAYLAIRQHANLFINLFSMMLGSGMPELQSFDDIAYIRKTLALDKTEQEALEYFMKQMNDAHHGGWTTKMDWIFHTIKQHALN
Sequence of PIK3Cδ_h (O00329 whole entry): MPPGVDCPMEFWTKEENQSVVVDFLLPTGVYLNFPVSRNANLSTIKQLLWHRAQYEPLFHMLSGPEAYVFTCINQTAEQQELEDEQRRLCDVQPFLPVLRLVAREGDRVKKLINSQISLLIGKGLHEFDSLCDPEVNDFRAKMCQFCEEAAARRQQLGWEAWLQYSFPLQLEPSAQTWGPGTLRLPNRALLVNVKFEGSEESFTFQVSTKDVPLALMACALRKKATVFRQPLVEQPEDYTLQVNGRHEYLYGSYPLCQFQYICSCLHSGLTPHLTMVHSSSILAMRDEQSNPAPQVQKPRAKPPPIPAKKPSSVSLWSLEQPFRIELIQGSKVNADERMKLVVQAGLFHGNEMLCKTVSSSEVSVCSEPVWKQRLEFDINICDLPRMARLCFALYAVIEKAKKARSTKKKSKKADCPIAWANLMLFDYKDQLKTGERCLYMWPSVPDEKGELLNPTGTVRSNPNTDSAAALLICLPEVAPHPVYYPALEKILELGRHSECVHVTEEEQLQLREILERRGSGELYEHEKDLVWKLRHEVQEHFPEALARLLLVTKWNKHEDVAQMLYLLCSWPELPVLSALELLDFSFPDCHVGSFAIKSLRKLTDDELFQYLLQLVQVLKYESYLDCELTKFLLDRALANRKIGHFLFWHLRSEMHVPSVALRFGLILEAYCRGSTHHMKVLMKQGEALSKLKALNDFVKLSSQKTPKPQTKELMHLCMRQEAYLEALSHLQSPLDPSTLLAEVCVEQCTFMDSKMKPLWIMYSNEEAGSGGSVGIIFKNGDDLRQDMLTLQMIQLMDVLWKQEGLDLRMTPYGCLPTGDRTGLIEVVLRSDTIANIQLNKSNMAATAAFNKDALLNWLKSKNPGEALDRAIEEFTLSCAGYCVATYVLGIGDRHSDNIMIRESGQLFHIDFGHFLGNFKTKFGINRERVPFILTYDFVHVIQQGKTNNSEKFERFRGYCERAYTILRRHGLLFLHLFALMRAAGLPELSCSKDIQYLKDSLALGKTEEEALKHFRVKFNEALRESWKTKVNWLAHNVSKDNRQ
Sequence of PIK3Cγ_h (P48736 whole entry): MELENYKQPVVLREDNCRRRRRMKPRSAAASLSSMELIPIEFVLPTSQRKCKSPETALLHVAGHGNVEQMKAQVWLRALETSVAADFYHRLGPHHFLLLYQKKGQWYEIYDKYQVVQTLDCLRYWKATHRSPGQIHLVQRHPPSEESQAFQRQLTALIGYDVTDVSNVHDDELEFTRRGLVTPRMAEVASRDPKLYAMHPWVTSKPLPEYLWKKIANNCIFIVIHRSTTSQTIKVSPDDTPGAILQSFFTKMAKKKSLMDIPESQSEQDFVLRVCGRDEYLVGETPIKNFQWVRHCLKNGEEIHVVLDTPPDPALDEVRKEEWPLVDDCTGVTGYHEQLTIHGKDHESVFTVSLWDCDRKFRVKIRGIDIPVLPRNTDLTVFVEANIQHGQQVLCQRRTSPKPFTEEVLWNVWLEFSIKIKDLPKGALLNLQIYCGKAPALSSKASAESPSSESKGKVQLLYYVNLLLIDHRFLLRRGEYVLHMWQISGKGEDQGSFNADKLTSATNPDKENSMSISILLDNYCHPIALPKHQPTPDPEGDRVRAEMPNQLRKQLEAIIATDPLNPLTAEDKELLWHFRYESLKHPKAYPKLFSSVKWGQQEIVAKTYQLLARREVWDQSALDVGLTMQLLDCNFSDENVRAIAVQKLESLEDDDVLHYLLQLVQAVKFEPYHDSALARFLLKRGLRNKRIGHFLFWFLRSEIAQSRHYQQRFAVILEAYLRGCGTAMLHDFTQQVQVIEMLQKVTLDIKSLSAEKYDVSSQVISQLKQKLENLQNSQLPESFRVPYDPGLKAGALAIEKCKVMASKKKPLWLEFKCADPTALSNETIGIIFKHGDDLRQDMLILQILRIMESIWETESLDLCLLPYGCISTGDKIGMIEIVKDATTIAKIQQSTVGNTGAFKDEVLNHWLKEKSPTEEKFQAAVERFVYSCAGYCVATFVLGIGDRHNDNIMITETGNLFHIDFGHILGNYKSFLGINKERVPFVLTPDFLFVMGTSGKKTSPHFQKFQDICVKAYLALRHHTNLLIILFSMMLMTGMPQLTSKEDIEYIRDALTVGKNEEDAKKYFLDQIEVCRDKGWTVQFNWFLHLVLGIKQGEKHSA
Sequence of PIK3Cβ_h (P42338 whole entry): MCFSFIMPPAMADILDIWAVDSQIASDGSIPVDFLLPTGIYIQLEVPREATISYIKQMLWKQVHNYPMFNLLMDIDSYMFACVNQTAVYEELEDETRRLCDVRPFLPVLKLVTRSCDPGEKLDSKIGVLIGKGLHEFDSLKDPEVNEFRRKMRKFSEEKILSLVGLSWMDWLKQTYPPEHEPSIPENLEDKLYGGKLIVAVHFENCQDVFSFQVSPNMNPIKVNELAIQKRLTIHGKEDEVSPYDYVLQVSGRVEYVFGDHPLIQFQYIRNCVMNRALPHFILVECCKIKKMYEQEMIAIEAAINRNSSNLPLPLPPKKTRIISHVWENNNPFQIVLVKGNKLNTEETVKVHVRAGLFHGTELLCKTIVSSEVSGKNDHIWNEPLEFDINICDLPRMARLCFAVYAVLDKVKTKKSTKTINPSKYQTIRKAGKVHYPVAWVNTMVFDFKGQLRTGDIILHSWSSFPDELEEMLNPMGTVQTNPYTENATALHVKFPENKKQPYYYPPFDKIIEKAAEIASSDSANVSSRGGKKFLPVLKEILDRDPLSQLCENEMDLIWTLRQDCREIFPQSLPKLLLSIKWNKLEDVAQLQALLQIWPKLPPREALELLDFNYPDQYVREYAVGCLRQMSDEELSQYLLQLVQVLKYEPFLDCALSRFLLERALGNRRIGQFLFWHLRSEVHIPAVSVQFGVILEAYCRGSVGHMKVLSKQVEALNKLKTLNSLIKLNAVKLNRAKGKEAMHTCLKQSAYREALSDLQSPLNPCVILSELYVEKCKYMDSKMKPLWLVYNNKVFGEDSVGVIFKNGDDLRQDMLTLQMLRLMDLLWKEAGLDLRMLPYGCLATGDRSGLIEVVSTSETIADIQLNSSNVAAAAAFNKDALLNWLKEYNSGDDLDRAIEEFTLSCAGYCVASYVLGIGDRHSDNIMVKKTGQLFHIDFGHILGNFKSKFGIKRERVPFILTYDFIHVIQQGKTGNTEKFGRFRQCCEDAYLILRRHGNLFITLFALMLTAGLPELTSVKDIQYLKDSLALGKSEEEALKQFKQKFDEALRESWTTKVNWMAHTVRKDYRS

For `Cc1c(Cc2c(COC(=O)C(C)N)nc3c(N)cc(N4CCOCC4)nn23)cccc1C(F)(F)F` (centres unmarked) [Compound 84], the negative logarithm of the Kd (pKd) at MTOR_h is 5.10; on PIK3Cβ_h, 9.30; at PIK3Cα_h, 4.92; at PIK3Cδ_h, 7.32; at PIK3Cγ_h, 4.90. Moreover, the pIC50 was 6.85 in test [1] and 7.01 in test [2].

In the case of `Cc1c(Cc2c(CNCCS(C)(=O)=O)nc3c(N)cc(N4CCOCC4)nn23)cccc1C(F)(F)F` [Compound 2], the pKd was 4.63 on MTOR_h; 8.85 at PIK3Cβ_h; 5.09 at PIK3Cα_h; 6.75 at PIK3Cδ_h; under 4.52 at PIK3Cγ_h. Further, the pIC50 in test [1] (Homo sapiens, PC-3, 1 h) was 6.86; in test [2] (Homo sapiens, PC-3, 1 h) it was 6.73.

Consider `Cc1c(Cc2c(CO)nc3c(N)cc(N4CCOCC4)nn23)cccc1C(F)(F)F` [Compound 14], for which the negative logarithm of the Kd (pKd) on MTOR_h is under 5.24; at PIK3Cβ_h, 8.89; at PIK3Cα_h, under 5.04; at PIK3Cδ_h, 6.68; on PIK3Cγ_h, under 5.05. Besides, the values for the negative-log IC50 (pIC50) in test [1] and in test [2] were about 7.20 and about 7.42, respectively.

For `Cc1nc2c(-c3c[nH]cn3)cc(N3CCOCC3)nn2c1Nc1cccc(C(F)(F)F)c1CN1CCN(C)CC1` [Compound 57], the negative logarithm of the Kd (pKd) on MTOR_h was 5.20; at PIK3Cβ_h, 9.15; at PIK3Cα_h, 6.47; on PIK3Cδ_h, 8.05; at PIK3Cγ_h it was 6.05. Besides, the pIC50 in test [1] (Homo sapiens, PC-3, 1 h) is 7.47; in test [2] (Homo sapiens, PC-3, 1 h) it was 7.59.

For the compound `Cc1nc2c(N)cc(N3CCOCC3)nn2c1Cc1cccc(F)c1C1CCN(CCO)CC1` [Compound 107], the pKd on MTOR_h was 4.94; on PIK3Cβ_h, 7.92; on PIK3Cα_h, 4.93; at PIK3Cδ_h, 6.45; at PIK3Cγ_h, 5.06. Further, the pIC50 in test [1] (Homo sapiens, PC-3, 1 h) is 6.80; in test [2] (Homo sapiens, PC-3, 1 h), 6.94.

`Cc1nc2c(N)cc(N3CCOCC3)nn2c1Nc1cccc2c1CCNC2` [Compound 64]: the negative-log Kd (pKd) on MTOR_h was 4.77; at PIK3Cβ_h, 8.10; on PIK3Cα_h it was 4.68; on PIK3Cδ_h, 7.47; on PIK3Cγ_h, under 4.52. For the same compound, the negative-log IC50 (pIC50) was 6.78 in test [1] (Homo sapiens, PC-3, 1 h) and 6.95 in test [2] (Homo sapiens, PC-3, 1 h).

For `Cc1c(Cc2c(CN)nc3c(N)cc(N4CCOCC4)nn23)cccc1C(F)(F)F` [Compound 85], the pKd on MTOR_h is 5.57; on PIK3Cβ_h, 9.15; at PIK3Cα_h it was under 4.64; on PIK3Cδ_h it was 7.12; on PIK3Cγ_h it was 5.13. The pIC50 is 6.94 in test [1] (Homo sapiens, PC-3, 1 h) and 7.07 in test [2] (Homo sapiens, PC-3, 1 h).

For the compound `Cc1c(Cc2c(CF)nc3c(N)cc(N4CCOCC4)nn23)cccc1C(F)(F)F` [Compound 17], the pKd is 4.85 on MTOR_h; 8.48 on PIK3Cβ_h; 4.77 on PIK3Cα_h; 6.37 at PIK3Cδ_h; 4.80 on PIK3Cγ_h. In addition, the negative-log IC50 (pIC50) is 7.09 in test [1] (Homo sapiens, PC-3, 1 h) and about 7.30 in test [2] (Homo sapiens, PC-3, 1 h).

As for `Cc1c(Cc2c(CO)nc3c(N)cc(N4CCOCC4)nn23)cccc1C(F)(F)F` [Compound 14a], the pKd on MTOR_h is 5.17; at PIK3Cβ_h it was 8.92; on PIK3Cα_h it was under 4.52; at PIK3Cδ_h, 6.65; on PIK3Cγ_h it was under 5.00. Further, the pIC50 in test [1] is about 7.34; in test [2], 7.42.

As to `Cc1nc2c(N)cc(N3CCOCC3)nn2c1Cc1cccc(C(F)(F)F)c1C` [Compound 6], the negative logarithm of the Kd (pKd) at MTOR_h was under 4.52; on PIK3Cβ_h, 8.30; on PIK3Cα_h, under 4.52; on PIK3Cδ_h it was 6.02; on PIK3Cγ_h, under 4.52. Besides, the negative logarithm of the IC50 (pIC50) was 6.91 in test [1] (Homo sapiens, PC-3, 1 h) and about 7.07 in test [2] (Homo sapiens, PC-3, 1 h).

As to `Cc1c(Cc2c(CO)nc3c(C(=O)O)cc(N4CCOCC4)nn23)cccc1C(F)(F)F` [Compound 22], the pKd is 4.97 at MTOR_h; 8.92 at PIK3Cβ_h; 5.80 at PIK3Cα_h; 7.32 on PIK3Cδ_h; under 4.82 on PIK3Cγ_h. In addition, the negative-log IC50 (pIC50) in test [1] (Homo sapiens, PC-3, 1 h) is under 6.29; in test [2] (Homo sapiens, PC-3, 1 h), under 6.29.

What is called pKd is the Kd on a negative log10 scale, so that one unit is a factor of ten. Low values mean a large Kd, high ones a small Kd. Usually pIC50 stands for the IC50 on a negative log10 scale, so that one unit is a factor of ten.
